The assay addresses T1, Dipeptidyl peptidase-4 (DPP-4) (Homo sapiens, UniProt P27487).
T1 construct: gene DPP4
In words: fluorescence DPP-4 inhibitor screening kit (Sigma Aldrich), kinetic mode. Format: biochemical.

T1 sequence (P27487 whole entry): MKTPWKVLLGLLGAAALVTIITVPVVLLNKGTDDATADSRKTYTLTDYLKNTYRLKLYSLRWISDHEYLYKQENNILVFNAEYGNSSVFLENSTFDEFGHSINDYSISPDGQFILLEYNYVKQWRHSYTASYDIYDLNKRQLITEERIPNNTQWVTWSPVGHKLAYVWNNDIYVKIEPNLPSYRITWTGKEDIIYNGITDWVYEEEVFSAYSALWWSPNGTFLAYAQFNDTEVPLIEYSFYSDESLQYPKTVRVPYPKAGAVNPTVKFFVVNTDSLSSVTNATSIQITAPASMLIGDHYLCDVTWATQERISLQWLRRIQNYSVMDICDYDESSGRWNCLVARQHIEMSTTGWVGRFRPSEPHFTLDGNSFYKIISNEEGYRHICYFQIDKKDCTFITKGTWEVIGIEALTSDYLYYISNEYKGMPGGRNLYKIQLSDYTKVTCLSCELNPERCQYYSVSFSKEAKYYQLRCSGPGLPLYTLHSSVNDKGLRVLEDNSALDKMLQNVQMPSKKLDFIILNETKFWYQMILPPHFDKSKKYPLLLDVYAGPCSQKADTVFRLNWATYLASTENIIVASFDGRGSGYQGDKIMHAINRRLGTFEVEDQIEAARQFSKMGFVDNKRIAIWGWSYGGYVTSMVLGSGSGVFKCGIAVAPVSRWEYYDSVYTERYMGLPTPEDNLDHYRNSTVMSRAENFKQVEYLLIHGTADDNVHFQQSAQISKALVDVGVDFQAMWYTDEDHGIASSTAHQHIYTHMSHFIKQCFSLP

In the case of `C=CC(C)(C)c1cc(/C=C/C(=O)c2ccc(O)cc2)c(OC)cc1O` [LicA, licochalcone A], the IC50 is roughly 348 µM. Compound `COc1c(/C=C/C(=O)c2ccc(O)cc2)ccc(O)c1O` [LicB, licochalcone B] showed an IC50 of roughly 798 µM.

In general, IC50 refers to the concentration that gives 50% inhibition. Read a high IC50 as weaker potency.

The values are drawn from paper PMC9564220, “Dipeptidyl peptidase-4 inhibitory potentials of Glycyrrhiza uralensis and its bioactive compounds licochalcone A and licochalcone B: An in silico and in vitro study” (Frontiers in Molecular Biosciences, 2022).
